# What was measured:
# [1] = test system: F9; experiment: Cellular activity on the differentiation was quantified by measure of plasminogen activator in mouse embryonal teratocarcinoma F9 cells; format: functional, cell-based
# [2] = Half life in rat plasma was determined; format: ADME, organism-based
# [3] = test system: F9; experiment: Cellular activity on the differentiation was quantified by measure of plasminogen activator in mouse embryonal teratocarcinoma F9 cells; NA means not active; format: functional, cell-based
structure (smiles),measurement,setting,value
C[C@@H](OC(=O)c1ccc(C(=O)O)cc1)c1ccc2c(c1)C(C)(C)CCC2(C)C,AC50,[1],300 nM
same,half-life,[2],6 h
C[C@H](OC(=O)c1ccc(C(=O)O)cc1)c1ccc2c(c1)C(C)(C)CCC2(C)C,AC50,[3],Not Active
same,half-life,[2],> 24 h
CC(OC(=O)c1ccc(C(=O)O)cc1)c1ccc2c(c1)C(C)(C)CCC2(C)C (stereo not drawn),AC50,[1],350 nM
same,half-life,[2],> 6 h
CC1(C)CCC(C)(C)c2cc(COC(=O)c3ccc(C(=O)O)cc3)ccc21,AC50,[1],140 nM
same,half-life,[2],2.3 h

# Source: ChEMBL document CHEMBL1128619, “Chemoenzymatic synthesis of enantiomers of a new retinoid to investigate the role of chirality in the biological response” (Bioorg Med Chem Lett, 1995)
